biological target: MAPK14 (human) (UniProt Q16539); assay: Inhibition of MAPK14 Kinase Activity
Sequence (Q16539 whole entry, looked up): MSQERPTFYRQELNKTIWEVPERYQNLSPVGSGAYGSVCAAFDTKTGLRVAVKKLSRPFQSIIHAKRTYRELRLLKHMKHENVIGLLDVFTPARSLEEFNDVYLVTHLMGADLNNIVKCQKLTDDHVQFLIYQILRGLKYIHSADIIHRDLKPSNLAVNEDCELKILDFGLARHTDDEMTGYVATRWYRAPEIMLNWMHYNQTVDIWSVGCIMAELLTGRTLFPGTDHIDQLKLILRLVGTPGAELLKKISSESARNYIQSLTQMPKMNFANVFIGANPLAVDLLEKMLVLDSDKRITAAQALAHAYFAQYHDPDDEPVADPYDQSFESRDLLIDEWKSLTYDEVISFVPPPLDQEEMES

IC50, ≤ 1 µM:
Cc1cc(Nc2c(C#N)sc3c2ccc(=O)n3-c2ccccc2Cl)ccc1F
Cc1ccccc1-n1c(=O)ccc2c(Nc3ccc(F)cc3F)c(C#N)sc21
N#Cc1sc2c(ccc(=O)n2-c2ccccc2)c1Nc1cccc([N+](=O)[O-])c1
N#Cc1sc2c(ccc(=O)n2CC2CC2)c1Nc1ccc(F)c(Cl)c1
Cc1cccc(Nc2c(C(N)=O)sc3c2ccc(=O)n3-c2ccccc2)c1C#N
CSc1cccc(Nc2c(C(N)=O)sc3c2ccc(=O)n3-c2ccccc2)c1
CCOC(=O)c1sc2c(ccc(=O)n2-c2ccccc2)c1Nc1cccnc1
CC(C)(CO)NC(=O)c1sc2c(ccc(=O)n2-c2ccccc2)c1Nc1ccccc1
CCOC(=O)c1sc2c(c(C)cc(=O)n2-c2ccccc2)c1Nc1ccccc1
O=C(c1sc2c(ccc(=O)n2-c2ccccc2)c1Nc1ccc(F)cc1)N1CCCC1
CCOC(=O)c1sc2c(ccc(=O)n2-c2ccccc2)c1Nc1ccc(F)cc1
CCOC(=O)c1sc2c(ccc(=O)n2-c2ccccc2)c1Nc1cccc(Cl)c1C#N
NC(=O)c1sc2c(ccc(=O)n2-c2ccccc2)c1Nc1ccccc1
CCOC(=O)c1sc2c(ccc(=O)n2-c2ccccc2)c1Nc1cccnc1Cl
CSc1cccc(Nc2c(C#N)sc3c2ccc(=O)n3-c2ccccc2)c1
CON(C)C(=O)c1sc2c(ccc(=O)n2-c2ccccc2)c1Nc1ccccc1
CCOC(=O)c1sc2c(ccc(=O)n2-c2ccccc2)c1Nc1ccc(F)cc1F
CCOC(=O)c1sc2c(ccc(=O)n2-c2ccc([S+](C)[O-])cc2)c1Nc1ccccc1C#N (stereo unspecified)
COc1ccc(-n2c(=O)ccc3c(Nc4ccc(F)cc4F)c(C#N)sc32)cc1
Cc1ccc(Nc2c(C#N)sc3c2ccc(=O)n3CC2CC2)cc1C
Cc1ccc(Nc2c(C(N)=O)sc3c2ccc(=O)n3CC2CC2)cc1C
O=C(c1sc2c(ccc(=O)n2-c2ccccc2)c1Nc1ccc(F)cc1F)N1CCCC1
CCOC(=O)c1sc2c(ccc(=O)n2-c2ccccc2)c1Nc1ccc(Cl)cc1
CCOC(=O)c1sc2c(ccc(=O)n2-c2ccccc2)c1Nc1cccc(C)c1
NC(=O)c1sc2c(ccc(=O)n2CC2CC2)c1Nc1cccc(Br)c1
Cc1ccc(Nc2c(C#N)sc3c2ccc(=O)n3CC2CC2)c(C)c1
O=C(O)c1sc2c(ccc(=O)n2-c2ccc3[nH]ccc3c2)c1Nc1ccccc1
Cc1ccc(Nc2c(C(N)=O)sc3c2ccc(=O)n3-c2ccccc2)cc1Br
Cc1cccc(Nc2c(C(N)=S)sc3c2ccc(=O)n3-c2ccccc2)c1
N#Cc1sc2c(ccc(=O)n2-c2ccc(OC[C@H](O)CO)cc2)c1Nc1ccc(F)cc1F
NC(=O)c1sc2c(ccc(=O)n2-c2ccccc2)c1Nc1ccccc1Cl
NC(=O)c1sc2c(ccc(=O)n2-c2ccccc2[N+](=O)[O-])c1Nc1ccc(F)cc1F
CCOC(=O)c1sc2c(ccc(=O)n2CC2CC2)c1Nc1cccc(C)c1C#N
NC(=O)c1sc2c(ccc(=O)n2-c2ccccc2)c1Nc1ccccc1O
CCOC(=O)c1sc2c(ccc(=O)n2-c2cccc(C)c2)c1Nc1cccc(C)c1
Cc1cccc(Nc2c(C(N)=O)sc3c2ccc(=O)n3-c2ccccc2)n1
CCOC(=O)c1sc2c(ccc(=O)n2-c2ccc(SC)cc2)c1Nc1cccc(C)c1
NC(=O)c1sc2c(ccc(=O)n2-c2ccccc2)c1Nc1ccccc1OC(F)F
N#Cc1sc2c(ccc(=O)n2-c2ccccc2)c1Nc1ccccc1OC(F)F
N#Cc1sc2c(ccc(=O)n2-c2ccccc2)c1Nc1cccc(OC(F)(F)F)c1
Cc1cccc(Nc2c(C#N)sc3c2ccc(=O)n3-c2ccccc2)c1
N#Cc1sc2c(ccc(=O)n2-c2ccccc2)c1Nc1cc(Cl)cc(Cl)c1
CCOC(=O)c1sc2c(ccc(=O)n2-c2ccc(OCCn3ccnc3C)cc2)c1Nc1ccc(F)cc1F
COC(=O)NNC(=O)c1sc2c(ccc(=O)n2-c2ccccc2)c1Nc1ccc(F)cc1F
CCOC(=O)c1sc2c(ccc(=O)n2-c2ccccc2)c1Nc1ccccc1Cl
N#Cc1sc2c(ccc(=O)n2-c2ccccc2)c1Nc1ccc(F)c(Cl)c1
O=C(NCCN1CCCCC1)c1sc2c(ccc(=O)n2CC2CC2)c1Nc1ccccc1
CCOC(=O)c1sc2c(ccc(=O)n2-c2ccc(Cl)cc2)c1Nc1ccc(F)c(C)c1
CCc1cccc(Nc2c(C(N)=O)sc3c2ccc(=O)n3-c2ccccc2)c1
O=C(c1sc2c(ccc(=O)n2-c2ccccc2)c1Nc1cccc(Cl)c1)N1CCCC1
NC(=O)c1sc2c(ccc(=O)n2-c2ccccc2)c1Nc1cccc(Cl)n1
Cc1cc(Nc2c(C(N)=O)sc3c2ccc(=O)n3-c2ccccc2Cl)ccc1F
NC(=O)c1sc2c(ccc(=O)n2-c2ccccc2)c1Nc1ccc(F)cc1
CCN(CC)C(=N)c1sc2c(ccc(=O)n2-c2ccccc2)c1Nc1cccc(C)c1
Cc1cc(Nc2c(C(=O)N(C)O)sc3c2ccc(=O)n3-c2ccccc2)ccc1F
O=c1ccc2c(Nc3cccc(Cl)c3)csc2n1-c1ccccc1
CCOC(=O)c1sc2c(ccc(=O)n2CC2CCCCO2)c1Nc1ccc(F)cc1F (stereo unspecified)
N#Cc1sc2c(ccc(=O)n2-c2ccccc2)c1Nc1cccc(Cl)n1
Cc1cccc(Nc2c(C#N)sc3c2ccc(=O)n3-c2ccccc2Cl)c1
NC(=O)c1sc2c(ccc(=O)n2CC2CC2)c1Nc1ccccc1
Cc1ccc(Nc2c(C#N)sc3c2ccc(=O)n3-c2ccccc2)cc1Br

Source: the Kinase Knowledgebase extract (Sharma et al. 2016)
